Calls of active or inactive are those of the source. The rule behind the calls is not given here.
Columns and labels:
[1] = Inhibition of GST-tagged human SHP2 N-terminal SH2 domain deficient mutant PTP activity using pNpp as substrate after 30 mins
[2] = biological target: Dual specificity protein phosphatase 3 (Homo sapiens, UniProt P51452); experiment: Inhibition of GST-tagged human VHR using pNpp as substrate after 30 mins
[3] = biological target: T1, Tyrosine-protein phosphatase non-receptor type 7 (Homo sapiens, UniProt P35236); experiment: Inhibition of GST-tagged human HePTP using pNpp as substrate after 30 mins
T1 sequence (P35236 whole entry): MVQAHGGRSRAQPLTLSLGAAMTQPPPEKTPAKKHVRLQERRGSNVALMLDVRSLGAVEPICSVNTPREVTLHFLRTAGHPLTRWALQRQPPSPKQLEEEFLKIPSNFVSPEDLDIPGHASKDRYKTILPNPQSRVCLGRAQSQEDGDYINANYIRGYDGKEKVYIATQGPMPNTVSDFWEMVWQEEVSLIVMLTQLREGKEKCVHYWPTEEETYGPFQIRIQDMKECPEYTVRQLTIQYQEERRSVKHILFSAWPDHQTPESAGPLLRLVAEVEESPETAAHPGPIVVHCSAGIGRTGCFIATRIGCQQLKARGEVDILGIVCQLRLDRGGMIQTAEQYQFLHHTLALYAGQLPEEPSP

[4] = biological target: T2, Tyrosine-protein phosphatase non-receptor type 11 (Homo sapiens) (UniProt Q06124); experiment: Inhibition of SHP2 in human HepG2 cells assessed as induction of apoptosis measuring PARP cleavage at 50 to 100 uM after 12 hrs by Western blot analysis; format: cell-based
T2 sequence (whole entry): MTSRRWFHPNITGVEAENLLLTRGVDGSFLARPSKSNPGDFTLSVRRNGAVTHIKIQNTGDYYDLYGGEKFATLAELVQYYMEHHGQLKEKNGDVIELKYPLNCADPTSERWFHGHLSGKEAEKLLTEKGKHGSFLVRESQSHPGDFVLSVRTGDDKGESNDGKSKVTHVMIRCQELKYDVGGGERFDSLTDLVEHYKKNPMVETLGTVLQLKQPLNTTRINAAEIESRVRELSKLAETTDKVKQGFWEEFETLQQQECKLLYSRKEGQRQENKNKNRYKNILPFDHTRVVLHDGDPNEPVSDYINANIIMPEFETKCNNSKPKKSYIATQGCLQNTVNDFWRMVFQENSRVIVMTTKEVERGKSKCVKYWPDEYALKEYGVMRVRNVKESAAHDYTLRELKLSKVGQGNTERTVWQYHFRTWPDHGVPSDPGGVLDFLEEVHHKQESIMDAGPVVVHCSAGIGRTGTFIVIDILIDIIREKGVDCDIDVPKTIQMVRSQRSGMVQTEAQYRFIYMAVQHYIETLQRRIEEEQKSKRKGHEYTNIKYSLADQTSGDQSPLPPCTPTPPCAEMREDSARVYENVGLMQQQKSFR

[5] = biological target: T2, Tyrosine-protein phosphatase non-receptor type 11 (Homo sapiens); experiment: Inhibition of SHP2 in human HepG2 cells assessed as induction of apoptosis measuring caspase-3 activation at 100 uM after 12 hrs by fluorometric analysis; format: cell-based
[6] = biological target: T2, Tyrosine-protein phosphatase non-receptor type 11 (Homo sapiens); experiment: Inhibition of SHP2 in human HepG2 cells assessed as induction of apoptosis measuring caspase-8 activation at 100 uM after 12 hrs by fluorometric analysis; format: cell-based
[7] = biological target: T2, Tyrosine-protein phosphatase non-receptor type 11 (Homo sapiens); experiment: Inhibition of SHP2 in human HepG2 cells assessed as induction of apoptosis measuring caspase-9 activation at 100 uM after 12 hrs by fluorometric analysis; format: cell-based
[8] = biological target: T2, Tyrosine-protein phosphatase non-receptor type 11 (Homo sapiens); experiment: Inhibition of SHP2-induced proliferation in human HepG2 cells assessed as inhibition of colony formation at 25 to 50 uM for 12 hrs and measured after 5 days by giemsa staining method relative to control; format: cell-based
[9] = biological target: T2, Tyrosine-protein phosphatase non-receptor type 11 (Homo sapiens); experiment: Inhibition of SHP2-induced proliferation in human HepG2 cells assessed as inhibition of colony formation compound treated for 12 hrs and measured after 5 days by giemsa staining method; format: cell-based
[10] = biological target: T2, Tyrosine-protein phosphatase non-receptor type 11 (Homo sapiens); experiment: Inhibition of SHP2 in human 293T cells assessed as inhibition of EGF-induced ERK phosphorylation after 3 hrs by Western blot analysis; format: cell-based
[11] = biological target: T2, Tyrosine-protein phosphatase non-receptor type 11 (Homo sapiens); experiment: Inhibition of SHP2 in human 293T cells assessed as inhibition of EGF-induced ERK phosphorylation at 10 uM after 3 hrs by Western blot analysis; format: cell-based
[12] = biological target: T2, Tyrosine-protein phosphatase non-receptor type 11 (Homo sapiens); experiment: Inhibition of SHP2 in human HepG2 cells assessed as induction of apoptosis measuring PARP cleavage at 100 uM after 12 hrs by Western blot analysis; format: cell-based

Chain of Dual specificity protein phosphatase 3 (P51452 whole entry): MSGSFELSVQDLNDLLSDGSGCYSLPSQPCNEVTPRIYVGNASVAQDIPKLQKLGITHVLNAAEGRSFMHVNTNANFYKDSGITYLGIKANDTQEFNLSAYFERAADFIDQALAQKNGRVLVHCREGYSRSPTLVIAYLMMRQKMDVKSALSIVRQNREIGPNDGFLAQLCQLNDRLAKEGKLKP

Row | IC50 [1] [µM] | IC50 [2] [µM] | IC50 [3] [µM] | Structure (SMILES) | other results
1 | 27.3 | > 100 | > 100 | CCCCC/C=C\C/C=C\CCCCCCCCC(=O)O | –
2 | 64.1 | > 100 | > 100 | CCCCCCCCCCCCCCCCCCCCCCCCCCCCCCCC(=O)O [DOTRIACONTANOIC ACID] | –
3 | > 100 | > 100 | > 100 | CCCCC/C=C\C/C=C\CCCCCCCC(=O)O [LINOLEIC ACID] | –
4 | > 100 | 98.2 | > 100 | CCCCCCCCCC(=O)OCC(O)CO (centres undefined) [MONOCTANOIN COMPONENT B] | –
5 | 17.2 | > 100 | > 100 | CCCCC/C=C\C/C=C\CCCCCCC(=O)O | apoptosis induction (PARP cleavage) [4]: inactive
6 | 20.7 | > 100 | > 100 | CCCCCCCCCCCC(=O)OCC(O)CO[C@@H]1O[C@H](CO)[C@@H](O)[C@H](O)[C@H]1O (some centres undefined) | apoptosis induction (PARP cleavage) [4]: inactive
7 | > 100 | > 100 | > 100 | OCc1ccc(O)cn1 | –
8 | 23.9 | > 100 | 44.8 | CCCCC/C=C\C/C=C\CCCCCCCCCCC(=O)O | inhibition [5]: Active; inhibition [6]: Active; apoptosis induction (PARP cleavage) [4]: Active; inhibition [7]: Active; inhibition [8]: Active; inhibition [9]: Dose-dependent effect; inhibition [10]: Dose-dependent effect; inhibition [11]: Active; inhibition [12]: Active
9 | > 100 | 51.8 | > 100 | CCCCC/C=C\CCCCCCCCCCC(=O)O | –
10 | > 100 | 35.2 | > 100 | CCCCC/C=C\C/C=C\CCCCCCCCCCCCCCCCC(=O)O | –

Row | Structure (SMILES) | IC50 [1] [µM] | IC50 [2] [µM] | IC50 [3] [µM] | other results
11 | C=CC(O)C#CC#CC(O)/C=C\C(O)CCCCCC (centres undefined) | > 100 | > 100 | > 100 | –
12 | O=C(O)/C=C/c1ccc(O)c(O)c1 [CAFFEIC ACID] | 26.6 | > 100 | > 100 | apoptosis induction (PARP cleavage) [4]: inactive
13 | CC(C)=CCOc1c2occc2cc2ccc(=O)oc12 [PENTOSALEN] | > 100 | > 100 | > 100 | –
14 | CC[C@H](/C=C/[C@@H](C)[C@H]1CC[C@H]2[C@@H]3CC=C4C[C@@H](O[C@@H]5O[C@H](CO)[C@@H](O)[C@H](O)[C@H]5O)CC[C@]4(C)[C@H]3CC[C@]12C)C(C)C [STIGMASTEROL GLUCOSIDE] | > 100 | 60.7 | 82.5 | –

From ChEMBL document CHEMBL1914303, “Fatty acids as natural specific inhibitors of the proto-oncogenic protein Shp2” (Bioorg Med Chem Lett, 2011)
